Article PMC5404542, “In Vitro and In Vivo Antifungal Profile of a Novel and Long-Acting Inhaled Azole, PC945, on Aspergillus fumigatus Infection” (Antimicrobial Agents and Chemotherapy, 2017)
pIC50, pKd, pKi: −log10 of the molar value. ≈ marks a conversion by molar mass, not a printed value. Where “and” joins values, the source holds several entries; their conditions need not be identical. Identical values can stand only once.

How the values were obtained:
A. fumigatus ATCC 204305 = assay: MIC with and without BSA supplementation, quality control strain; conditions: Aspergillus fumigatus
Procedure: Conidia were added across the plate to a final concentration of 1 × 10^5 ml^−1. […] Determination of antifungal activity against 50 A. fumigatus clinical isolates from St. Louis Hospital (Paris, France) was performed with 96-well plates, using the modified EUCAST method in the presence of 0.5% BSA as described above. Antifungal susceptibility testing of 46 A. fumigatus isolates (obtained from the NW England Mycology Reference Centre) was performed by Evotec UK Ltd. (Manchester, United Kingdom) according to EUCAST guidelines.

[1] = system: A. fumigatus (ATCC 13073 [strain NIH 5233]); assay: In vivo antifungal activity, intranasal treatment of temporarily neutropenic immunocompromised mice; conditions: for incidence of rolling behavior: 14 μg/mouse intranasally once daily
Procedure: The mice were reared on a standard diet and tap water ad libitum. […] Conidia were aseptically dislodged from the agar plates and suspended in sterile distilled water with 0.05% Tween 80 and 0.1% agar. […] On day 0, 30 μl of the conidial suspension was administered intranasally.
Test agents suspended in physiological saline were administered daily intranasally (35 μl) on days 1 to 6, and the survival of animals was recorded for 7 days. […] Deaths and the body weights of surviving animals were monitored daily. A body weight loss of >20% compared to an animal's weight on day 1 and mouse death were both defined as “dropout” events. Animals that lost >20% of their initial body weight were sacrificed. […] Bronchoalveolar lavage fluid (BALF) was collected on day 7 postinfection or on the day that the mouse dropped out of the study. The Aspergillus GM concentration in BALF was determined by use of Platelia GM-EIA kits (Bio-Rad Laboratories). The value was provided as the “cutoff index” (COI), which was calculated by the following formula: COI = OD in sample/OD in cutoff control (provided by the kit).

AfCYP51B [2] = molecular target: T1, AfCYP51B (Aspergillus fumigatus, UniProt E9QY26); assay: CYP51 reconstitution assay (sterol 14α-demethylase activity); assay type: biochemical; conditions: for pIC50: 0.5 μM AfCYP51B from membrane fraction of E. coli expression clones; for pKi: suggested from tight-binding inhibition, read-out: Ki.app, CYP51B
T1 construct: made in house; host or cells: Escherichia coli (membrane fraction)
T1 sequence (E9QY26 1-524): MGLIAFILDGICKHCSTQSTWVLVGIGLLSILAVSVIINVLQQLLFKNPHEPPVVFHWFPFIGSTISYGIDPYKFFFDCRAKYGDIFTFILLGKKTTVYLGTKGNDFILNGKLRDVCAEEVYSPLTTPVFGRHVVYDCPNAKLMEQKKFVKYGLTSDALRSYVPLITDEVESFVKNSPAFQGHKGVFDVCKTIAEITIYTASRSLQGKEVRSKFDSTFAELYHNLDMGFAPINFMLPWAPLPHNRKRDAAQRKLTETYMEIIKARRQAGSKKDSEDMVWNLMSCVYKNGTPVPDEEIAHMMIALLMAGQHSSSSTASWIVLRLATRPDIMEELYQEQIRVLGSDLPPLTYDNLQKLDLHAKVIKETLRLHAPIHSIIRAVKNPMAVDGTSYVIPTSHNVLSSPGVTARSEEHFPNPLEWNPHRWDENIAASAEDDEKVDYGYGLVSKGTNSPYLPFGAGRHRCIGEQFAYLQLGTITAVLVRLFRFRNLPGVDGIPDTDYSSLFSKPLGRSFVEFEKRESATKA
Procedure: (§1) A CYP51 reconstitution assay system was used to determine 50% inhibitory concentrations (IC50s) ([37]). Test agent was added to a mixture of 0.5 μM CYP51, 1 μM A. fumigatus cytochrome P450 reductase isoenzyme 1 (AfCPR1), 50 μM eburicol, 4% (wt/vol) 2-hydroxypropyl-β-cyclodextrin, 0.4 mg ml^−1 isocitrate dehydrogenase, 25 mM trisodium isocitrate, 50 mM NaCl, 5 mM MgCl2, and 40 mM 3-(N-morpholino) propanesulfonic acid (MOPS) (pH ∼7.2). The mixtures were then incubated at 37°C for 10 min prior to initiation with 4 mM β-NADPHNa4 followed by shaking for 20 min at 37°C. Sterol metabolites were recovered by extraction with ethyl acetate followed by derivatization with 0.1 ml N,O-bis(trimethylsilyl)trifluoroacetamide:trimethylchlorosilane (99:1) and 0.3 ml anhydrous pyridine prior to analysis by gas chromatography-mass spectrometry.

[3] = system: Trichophyton rubrum (ATCC 10218); assay: MIC, CLSI; assay type: cell-based; conditions: ATCC10218, 1 strain
[4] = system: Cryptococcus neoformans (ATCC 24067); assay: MIC, CLSI; assay type: cell-based; conditions: for MIC: Cryptococcus neoformans, ATCC24067, 1 strain, CLSI, read-out: MIC
[5] = system: AR Candida albicans (20183.073, 20186.025); assay: MIC, CLSI; assay type: cell-based; conditions: read-out: MIC (the MIC given is the MIC50)
AfCYP51A = AfCYP51A (Aspergillus fumigatus, UniProt Q4WNT5); assay: CYP51 reconstitution assay (sterol 14α-demethylase activity); assay type: biochemical; parameters: made in house; host or cells: Escherichia coli (membrane fraction)
AfCYP51A, sequence (Q4WNT5 whole entry): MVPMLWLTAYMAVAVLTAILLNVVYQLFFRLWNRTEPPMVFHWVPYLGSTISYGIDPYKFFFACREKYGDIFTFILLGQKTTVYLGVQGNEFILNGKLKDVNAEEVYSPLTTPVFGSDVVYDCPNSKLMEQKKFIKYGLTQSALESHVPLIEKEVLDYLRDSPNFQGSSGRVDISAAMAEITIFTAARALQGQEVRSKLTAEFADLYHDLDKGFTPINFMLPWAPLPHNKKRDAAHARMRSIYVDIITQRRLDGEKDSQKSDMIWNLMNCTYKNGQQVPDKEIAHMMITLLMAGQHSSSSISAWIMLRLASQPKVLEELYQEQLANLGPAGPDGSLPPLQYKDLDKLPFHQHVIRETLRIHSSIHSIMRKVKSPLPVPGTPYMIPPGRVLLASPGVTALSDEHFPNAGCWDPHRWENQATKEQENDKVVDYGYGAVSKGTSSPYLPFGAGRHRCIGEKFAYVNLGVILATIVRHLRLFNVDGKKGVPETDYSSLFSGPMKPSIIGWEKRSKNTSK
Procedure: as §1

[6] = system: Candida glabrata (ATCC 36583, R363); assay: MIC, CLSI; assay type: cell-based; conditions: Nakaseomyces glabratus, ATCC36583; 2 strains, CLSI, mean isolate MIC; read-out: MIC (the MIC given is the MIC50)
AfCYP51B [7] = molecular target: T2, AfCYP51B (Aspergillus fumigatus, UniProt E9QY26); assay: A. fumigatus CYP51 binding assay (ligand titration, type II difference spectra); conditions: for pKd: 4 μM purified AfCYP51B
T2 construct: made in house
Procedure: A. fumigatus CYP51 binding properties were determined as described by Warrilow et al. ([35]). Test agents were titrated against 4 μM recombinant A. fumigatus CYP51A or CYP51B protein, and binding saturation curves were constructed from the change in the absorbance between the spectral peak and the trough. A rearrangement of the Morrison equation was used to determine the dissociation constant (Kd) values when ligand binding was tight ([36]).

[8] = system: Gibberella zeae (Fusarium graminearum) (ATCC 16106); assay: microbe, parasite or virus in culture; assay type: cell-based; conditions: ATCC16106
[9] = system: Aspergillus flavus (AFL8, NRRC3357); assay: MIC, EUCAST; assay type: cell-based; conditions: 2 strains, EUCAST, mean isolate MIC, read-out: MIC
A. fumigatus (NCPF2010) = assay: A. fumigatus cell-based ergosterol assay; parameters: species or system Aspergillus fumigatus; conditions: for IC50: Aspergillus fumigatus, NCPF2010, 24 h, normalized by crystal violet, read-out: IC50, inhibition of ergosterol production
Procedure: After incubation for 24 h at 35°C, medium was removed from all wells and replaced with reaction buffer (Amplex red cholesterol assay kit; Thermo Fisher) and Amplex red solution. Plates were incubated for 30 min at 37°C, protected from light, after which fluorescence was quantified using a spectrophotometer. Medium was removed from all wells and replaced with crystal violet solution (1% [vol/vol]), and plates were incubated at room temperature on a shaker for 30 min. Plates were washed three times with phosphate-buffered saline (PBS), and sodium dodecyl sulfate solution (0.1% [vol/vol]) was added across the plate to lyse the cells. After incubation at room temperature for 1 h, the absorbance was measured by determining the OD590 by use of a spectrophotometer.

[10] = system: Penicillium citrinum (ATCC 9849); assay: MIC, CLSI; assay type: cell-based; conditions: ATCC9849, 1 strain
[11] = system: Aspergillus terreus (AT49, AT7130); assay: MIC, EUCAST; assay type: cell-based; conditions: 2 strains, EUCAST, mean isolate MIC, read-out: MIC
[12] = system: A. fumigatus hyphae (NCPF2010)
Procedure: The persistence of action of test agents was calculated for A. fumigatus hyphae (NCPF2010). […] The plates were incubated for exactly 20 min at 35°C and 5% CO2. After the incubation time had elapsed, all wells on the designated washout plate were aspirated, and growth medium (100 μl/well) was added across the plate. […] Resazurin (0.04%; diluted in growth medium) was added to all wells of both nonwashout and washout plates (5 μl/well) to give a final concentration of 0.002% resazurin. The plates were incubated at 35°C and 5% CO2 for 16 h. […] The percent inhibition for each well was calculated, and the IC50 was calculated from the concentration-response curve generated for each test compound by use of a four-parameter logistic equation (Dotmatics, Bishops Stortford, United Kingdom).

[13] = system: Candida albicans (20240.047, ATCC 10231); assay: MIC, CLSI; assay type: cell-based; conditions: ATCC10231, 2 strains, CLSI, mean isolate MIC, read-out: MIC (the MIC given is the MIC50)
[14] = system: Penicillium chrysogenum (ATCC 9480); assay: MIC, CLSI; assay type: cell-based; conditions: ATCC9480, 1 strain
[15] = 0.56 μg/mouse intranasally once daily days 1 to 6
[16] = 2.8 μg/mouse intranasally once daily days 1 to 6
[17] = 14 μg/mouse intranasally once daily days 1 to 6
[18] = 70 μg/mouse intranasally once daily days 1 to 6

SMILES	MIC (A. fumigatus ATCC 204305; ATCC204305, with BSA) [ng/mL]	MIC (A. fumigatus ATCC 204305; ATCC204305, without BSA) [ng/mL]	Median days of survival [1, 16] [days]	No. of survivors on day 7/total no. of mice [1, 16]	survivors on day 7 (%) [1, 16] [%]	incidence of rolling behavior [1]	Median days of survival [1, 17]	No. of survivors on day 7/total no. of mice [1, 17]	survivors on day 7 (%) [1, 17] [%]	pIC50 (AfCYP51B [2])	pKi (AfCYP51B [2])	MIC [3] [ng/mL]	MIC [4] [ng/mL]	MIC50 [5] [ng/mL]	pIC50 (AfCYP51A)	pKi (AfCYP51A)	MIC50 [6] [ng/mL]	MIC [8] [ng/mL]	MIC [9] [ng/mL]	IC50 (A. fumigatus (NCPF2010))	other results
Cc1cc(N2CCN(c3ccc(C(=O)Nc4ccc(F)cc4)cc3)CC2)ccc1OC[C@@H]1CO[C@@](Cn2cncn2)(c2ccc(F)cc2F)C1 [PC945, 4-[4-(4-{[(3R,5R)-5-(2,4-difluorophenyl)-5-(1H-1,2,4-triazol-1-ylmethyl)oxolan-3-yl]methoxy}-3-methylphenyl)piperazin-1-yl]-N-(4-fluorophenyl)benzamide]	62.5 (≈ 0.0915 µM)	250 (≈ 0.366 µM)	6.5	5/8	63	substantially inhibited	Undefined	10/16	63	6.66	> 9.00	31 (≈ 0.0454 µM)	8 (≈ 0.0117 µM)	8250 (≈ 12.1 µM)	6.64	> 9.00	500 (≈ 0.732 µM)	> 8000	6000 (≈ 8.79 µM)	0.0047 µg/mL and 6.9 nM	Median days of survival [1, 15]: 6 days; No. of survivors on day 7/total no. of mice [1, 15]: 4/8; survivors on day 7 (%) [1, 15]: 50%; fold more potent than both voriconazole and posaconazole ([4]; C. neoformans): 2 fold; difference spectra on titration against purified CYP51B (AfCYP51B [7]): type II difference spectra; pKd (AfCYP51B [7]; Kd2, AfCYP51B, modified two-site allosteric model): 6.49; fold more potent than posaconazole, ergosterol production (A. fumigatus (NCPF2010)): 2.6 fold; fold more potent than voriconazole, ergosterol production (A. fumigatus (NCPF2010)): 14 fold; MIC [10]: > 8000 ng/mL; MIC [11]: 78 ng/mL (≈ 0.114 µM); IC50 [12]: 0.086 ng/mL (≈ 0.000126 µM); MIC50 [13]: 81 ng/mL (≈ 0.119 µM); MIC [14]: > 8000 ng/mL
CC[C@@H]([C@H](C)O)n1ncn(-c2ccc(N3CCN(c4ccc(OC[C@@H]5CO[C@@](Cn6cncn6)(c6ccc(F)cc6F)C5)cc4)CC3)cc2)c1=O [Posaconazole, posaconazole]	60 (≈ 0.0856 µM)	30 (≈ 0.0428 µM)	5	1/8	13	not	6 days	7/16	44	6.77	> 9.00	31 (≈ 0.0442 µM)	16 (≈ 0.0228 µM)	8130 (≈ 11.6 µM)	6.80	> 9.00	500 (≈ 0.713 µM)	> 8000	160 (≈ 0.228 µM)	0.012 µg/mL and 17 nM	Median days of survival [1, 18]: Undefined; No. of survivors on day 7/total no. of mice [1, 18]: 6/8; survivors on day 7 (%) [1, 18]: 75%; pKd (AfCYP51B [7]; Kd1, AfCYP51B, PC945: modified two-site allosteric model, posaconazole: single tight-binding Kd): 7.92; MIC [10]: 500 ng/mL (≈ 0.713 µM); MIC [11]: 93 ng/mL (≈ 0.133 µM); IC50 [12]: 2.2 ng/mL (≈ 0.00314 µM); MIC50 [13]: 81 ng/mL (≈ 0.116 µM); MIC [14]: 130 ng/mL (≈ 0.186 µM)
